For assay [1], the target named is Peptidyl-prolyl cis-trans isomerase FKBP1A (Homo sapiens, UniProt P62942). Put plainly: Ability to inhibit peptidyl-prolyl isomerase (PPIase, or rotamase) activity of FK506 binding protein 12.
Another assay relates to Mus musculus. In words: Recovery of TH-immunostaining in […]-treated mice by post-MPTP treatment at a peroral dose of 10 mg/kg. More on the design: dose 10 mg/kg. Type of assay: functional, organism-based.

Bounds are passed on as bounds.

In general, Ki refers to the equilibrium dissociation constant of an inhibitor or competing ligand from its target. Low values mean higher affinity, high ones lower affinity.

Peptidyl-prolyl cis-trans isomerase FKBP1A, sequence (P62942 whole entry): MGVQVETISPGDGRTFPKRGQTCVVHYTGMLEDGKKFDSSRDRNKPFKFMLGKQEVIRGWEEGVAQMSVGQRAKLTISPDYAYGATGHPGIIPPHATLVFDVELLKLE

Take `O=C(NCCc1ccccc1)C1CCCN1S(=O)(=O)c1ccccc1` (centres undefined): affinity in assay [1] was put at a Ki of 37 µM.

In assay [1], `O=C(NCCc1ccccc1)C1CCCN1S(=O)(=O)CCc1ccccc1` (centres undefined) registered a Ki of 32 µM. The Ki values of the last two compounds are within 1.5-fold of each other.

Turning to `O=C(NCCCCc1ccccc1)[C@@H]1CCCCN1C(=O)NCc1ccccc1`, the Recovery with Mus musculus stood at 42%. The compound further yielded a Ki in assay [1] of 1.6 µM.

On to `Cc1ccc(S(=O)(=O)N2CCCC2C(=O)NCCCc2ccccc2)cc1` (centres undefined), for which the affinity in assay [1] corresponds to a Ki of 7.6 µM.

For the compound `CCCCNC(=O)C1CCCN1S(=O)(=O)CCc1ccccc1` (centres undefined), the affinity in assay [1] corresponds to a Ki of 42 µM.

With `CCCCNC(=O)C1CCCCN1S(=O)(=O)c1ccc(CC)cc1` (centres undefined), in assay [1], the affinity corresponds to a Ki of 1.2 µM.

Turning to `CCCCNC(=O)C1CCCCN1S(=O)(=O)c1ccccc1` (centres undefined), in assay [1], the Ki was 4.7 µM.

In assay [1], `CCCCNC(=O)C1CCCCN1S(=O)(=O)/C=C/c1ccccc1` (centres undefined) yielded a Ki of 11 µM.

As for `O=C(NCCc1ccccc1)C1CCCCN1S(=O)(=O)Cc1ccccc1` (centres undefined), the affinity in assay [1] corresponds to a Ki of 13 µM.

`CCc1ccccc1NC(=O)N1CCCC1C(=O)NCCCc1ccccc1` (centres undefined): in assay [1], the inhibition constant (Ki) is over 50 µM.

`O=C(NCCCc1ccccc1)[C@@H]1CCCN1C(=O)NCc1ccccc1`: in the assay on Mus musculus, the Recovery was 31%. This compound yielded a Ki in assay [1] of 4.2 µM.

Compound `O=C(NCCCc1ccccc1)C1CCCN1C(=O)Nc1ccccc1` (centres undefined) yielded an inhibition constant Ki in assay [1] of 1.4 µM. This lies in the single-digit micromolar range.

`CCCCNC(=O)C1CCCN1C(=O)Nc1ccccc1CC` (centres undefined) displayed a Ki in assay [1] of over 50 µM.

In turn, `O=C(NCCCc1ccccc1)C1CCCCN1S(=O)(=O)/C=C/c1ccccc1` (centres undefined) returned a Ki in assay [1] of 1.1 µM.

On to `CCCCCCCCS(=O)(=O)N1CCCC1C(=O)NCCc1ccccc1` (centres undefined), for which the Ki in assay [1] was over 50 µM.

With `O=C(NCc1ccccc1)C1CCCCN1S(=O)(=O)c1ccccc1` (centres undefined), the Ki in assay [1] was 2.5 µM.

`O=C(NCCc1ccccc1)C1CCCCN1S(=O)(=O)c1ccccc1` (centres undefined) yielded a Ki in assay [1] of 1.5 µM.

Turning to `O=C(NCCc1ccccc1)C1CCCN1C(=O)NC1CCCCC1` (centres undefined), the Ki in assay [1] was over 50 µM.

On to `O=C(NCc1ccccc1)C1CCCCN1S(=O)(=O)Cc1ccccc1` (centres undefined), for which the Ki in assay [1] amounted to 39 µM.

Consider `O=C(NCCCc1ccccc1)C1CCCN1S(=O)(=O)c1ccccc1` (centres undefined), for which the affinity in assay [1], expressed as Ki, was 9.5 µM.

The compound `O=C(NCc1ccccc1)C1CCCCN1S(=O)(=O)/C=C/c1ccccc1` (centres undefined) displayed a Ki in assay [1] of 3.9 µM. Compared with the last compound, the Ki is about 2.4-fold lower.

`CCCCNC(=O)C1CCCN1C(=O)NCc1ccccc1` (centres undefined) displayed a Ki in assay [1] of over 50 µM.

In the assay with Mus musculus, `CCC(C)(C)C(=O)C(=O)N1CCC[C@H]1C(=O)OCCCc1cccnc1` returned a Recovery of 40%.

`O=C(NCCCCc1ccccc1)[C@@H]1CCCCN1S(=O)(=O)Cc1ccccc1`: the Recovery in the assay with Mus musculus is 37%.

For the compound `CCc1ccccc1NC(=O)N1CCCC1C(=O)NCc1ccccc1` (centres undefined), the Ki in assay [1] was over 50 µM.

On to `O=C(NCCc1ccccc1)C1CCCN1C(=O)Nc1ccccc1` (centres undefined), for which the Ki in assay [1] is 30 µM.

For `O=C(NCCc1ccccc1)C1CCCN1S(=O)(=O)/C=C/c1ccccc1` (centres undefined), in assay [1], the Ki was 22 µM.

`O=C(NCCc1ccccc1)C1CCCCN1S(=O)(=O)/C=C/c1ccccc1` (centres undefined) yielded a Ki in assay [1] of 2.4 µM.

In assay [1], `CCCCCCCCS(=O)(=O)N1CCCC1C(=O)NCc1ccccc1` (centres undefined) came in with a Ki of over 50 µM.

In the case of `CCc1ccc(S(=O)(=O)N2CCCCC2C(=O)NCc2ccccc2)cc1` (centres undefined), the affinity in assay [1], expressed as Ki, was 1.3 µM.

`CCc1ccccc1NC(=O)N1CCCC1C(=O)NCCc1ccccc1` (centres undefined) yielded a Ki in assay [1] of over 50 µM.

For `O=C(NCCCc1ccccc1)[C@@H]1CCCN1S(=O)(=O)Cc1ccccc1`, the Recovery in the assay on Mus musculus was 17%. In addition, the Ki in assay [1] stood at 2.8 µM.

In assay [1], `O=C(NCc1ccccc1)C1CCCN1C(=O)Nc1ccccc1` (centres undefined) gave a Ki of 33 µM. This counts as double-digit micromolar.

Take `CCCCNC(=O)C1CCCN1C(=O)NC1CCCCC1` (centres undefined): the Ki in assay [1] is over 50 µM.

`O=C(NCCCc1ccccc1)C1CCCN1S(=O)(=O)CCc1ccccc1` (centres undefined) came in with a Ki in assay [1] of 13 µM.

With `CCCCNC(=O)C1CCCN1S(=O)(=O)c1ccc(C)cc1` (centres undefined), the Ki in assay [1] was over 50 µM.

With `CCCCNC(=O)C1CCCN1S(=O)(=O)c1ccccc1` (centres undefined), the Ki in assay [1] was over 50 µM.

In the case of `O=C(NCc1ccccc1)C1CCCN1S(=O)(=O)/C=C/c1ccccc1` (centres undefined), the Ki in assay [1] was over 50 µM.

With `CCCCNC(=O)C1CCCCN1S(=O)(=O)Cc1ccccc1` (centres undefined), the inhibition constant Ki in assay [1] is over 50 µM.

`O=C(NCCc1ccccc1)C1CCCN1C(=O)NCc1ccccc1` (centres undefined) gave an inhibition constant Ki in assay [1] of over 30 µM.

In turn, `Cc1ccc(S(=O)(=O)N2CCCC2C(=O)NCCc2ccccc2)cc1` (centres undefined) registered an inhibitory constant (Ki) in assay [1] of 33 µM. In other words, the double-digit micromolar range.

Take `O=C(NCc1ccccc1)C1CCCN1C(=O)NC1CCCCC1` (centres undefined): the Ki in assay [1] is over 50 µM.

`O=C(NCCCc1ccccc1)C1CCCN1S(=O)(=O)/C=C/c1ccccc1` (centres undefined): in assay [1], the Ki was determined as 1.3 µM.

For `CCc1ccc(S(=O)(=O)N2CCCCC2C(=O)NCCc2ccccc2)cc1` (centres undefined), the Ki in assay [1] amounted to 1.6 µM.

`O=C(NCc1ccccc1)C1CCCN1C(=O)NCc1ccccc1` (centres undefined) had a Ki in assay [1] of over 50 µM.

In assay [1], `O=C(NCc1ccccc1)C1CCCN1S(=O)(=O)CCc1ccccc1` (centres undefined) showed a Ki of 22 µM.

As for `O=C(NCCCc1ccccc1)C1CCCCN1S(=O)(=O)Cc1ccccc1` (centres undefined), in assay [1], the Ki worked out at 2.2 µM.

In assay [1], `Cc1ccc(S(=O)(=O)N2CCCC2C(=O)NCc2ccccc2)cc1` (centres undefined) displayed a Ki of over 50 µM.

Turning to `O=C(NCCCc1ccccc1)C1CCCN1C(=O)NC1CCCCC1` (centres undefined), in assay [1], the Ki was over 33 µM.

`O=C(NCCCc1ccccc1)C1CCCCN1S(=O)(=O)c1ccccc1` (centres undefined) showed an inhibition constant (Ki) in assay [1] of 0.72 µM. This counts as sub-micromolar.

`CCCCCCCCS(=O)(=O)N1CCCC1C(=O)NCCCc1ccccc1` (centres undefined) gave a Ki in assay [1] of 5.4 µM. Compared with the last compound, the Ki is about 7.5-fold higher.

These data come from ChEMBL document CHEMBL1135119, “Solid-phase synthesis of FKBP12 inhibitors: N-sulfonyl and N-carbamoylprolyl/pipecolyl amides” (Bioorg Med Chem Lett, 2002).
